{
  "source": "paper PMC5138836",
  "about": "“Antiproliferative activities of Amaryllidaceae alkaloids from Lycoris radiata targeting DNA topoisomerase I” (Scientific Reports, 2016)",
  "biological_target": "T1, DNA topoisomerase I (Top I) (Escherichia coli, UniProt P06612)",
  "T1 construct": "gene topA",
  "T1 sequence (P06612 whole entry)": "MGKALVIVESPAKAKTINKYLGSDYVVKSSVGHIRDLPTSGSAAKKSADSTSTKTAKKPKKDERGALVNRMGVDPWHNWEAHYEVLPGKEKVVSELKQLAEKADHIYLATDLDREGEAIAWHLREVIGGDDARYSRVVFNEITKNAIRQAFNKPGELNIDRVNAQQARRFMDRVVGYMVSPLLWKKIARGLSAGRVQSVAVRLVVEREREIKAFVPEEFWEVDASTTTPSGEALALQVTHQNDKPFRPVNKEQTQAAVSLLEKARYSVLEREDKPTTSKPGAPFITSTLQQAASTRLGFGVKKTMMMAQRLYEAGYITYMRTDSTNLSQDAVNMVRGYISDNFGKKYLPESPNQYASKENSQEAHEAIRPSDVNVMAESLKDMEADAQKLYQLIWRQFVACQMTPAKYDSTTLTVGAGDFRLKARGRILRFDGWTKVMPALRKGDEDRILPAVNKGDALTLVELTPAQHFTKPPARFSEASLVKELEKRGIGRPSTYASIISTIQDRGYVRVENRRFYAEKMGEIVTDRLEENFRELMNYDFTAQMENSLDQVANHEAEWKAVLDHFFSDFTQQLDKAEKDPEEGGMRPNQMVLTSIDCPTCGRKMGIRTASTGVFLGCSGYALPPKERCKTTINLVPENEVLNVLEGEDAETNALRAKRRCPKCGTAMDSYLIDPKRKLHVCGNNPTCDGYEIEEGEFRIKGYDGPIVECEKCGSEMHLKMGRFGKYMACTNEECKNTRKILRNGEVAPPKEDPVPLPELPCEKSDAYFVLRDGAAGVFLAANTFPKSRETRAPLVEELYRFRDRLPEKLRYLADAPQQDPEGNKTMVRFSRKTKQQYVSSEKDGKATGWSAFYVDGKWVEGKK",
  "assay": "in vitro Top I inhibition assay (absorbance, plate reader); also affinity ultrafiltration HPLC-MS, EF […]",
  "format": "biochemical",
  "data": [
    {"smiles": "CN1CCC2=C[C@H](O)[C@H]3OC(=O)c4cc5c(cc4[C@H]3[C@@H]21)OCO5", "note": "[compound 5, hippeastrine]", "values": [
      {"measurement": "IC50", "value": 23, "unit": "µM"}
    ]}
  ]
}
